Results on 21 compounds are retold here after article PMC6736568, “Discovery of Novel Anti-cryptosporidial Activities From Natural Products by in vitro High-Throughput Phenotypic Screening” (Frontiers in Microbiology, 2019).

Where a name gives a salt, the structure may show the parent alone. Read-outs that look alike come from different tables or passages of the source.

What is called inhibition is the relative decrease from the control value, in per cent.

One series can be described thus: in vitro. Particulars: for cytotoxicity at 41 h, 10 µM: human.
Another series relates to Cryptosporidium parvum. The series is described as follows: qRT-PCR assay of the growth of C. parvum in vitro in HCT-8 host cells (primary and secondary screening, EC50). As to conditions: Cryptosporidium parvum, HCT-8; primary screening at 10 uM; read-out: Inhibition (%). The series is classed as cell-based.
[1] abbreviates: primary screening at 10 uM, treated vs control.

`NCCc1c[nH]cn1` [HISTAMINE DIHYDROCHLORIDE]: the “Hs18S ΔCT” value with HCT-8 host cells (Hs18S) is listed as 0.02. The cytotoxicity at 10 µM in the series “in vitro” was determined as 1.3%. In addition, in the series on Cryptosporidium parvum, the inhibition at 10 µM is -20.6%.

For the compound `COc1ccc2c(c1)O[C@H]1c3ccc(OC)cc3OC[C@@H]21` [HOMOPTEROCARPIN], the “Hs18S ΔCT” value with HCT-8 host cells (Hs18S) (setting [1]) is recorded as -0.01. Moreover, the cytotoxicity at 10 µM in the series “in vitro” was -0.7%. For the same compound, the inhibition at 10 µM in the series on Cryptosporidium parvum was 5.57%.

Take `C/C=C1\[C@H]2C=C(C)C[C@]1(N)c1ccc(=O)[nH]c1C2` [HUPERZINE A]: the “Hs18S ΔCT” value with HCT-8 host cells (Hs18S) (setting [1]) is recorded as 0.19. The cytotoxicity at 10 µM in “in vitro” was 12.4%. Besides, the inhibition at 10 µM with Cryptosporidium parvum turned out to be 37.6%.

Consider `C[C@]12CCC(=O)C=C1CC[C@@H]1[C@@H]2[C@@H](O)C[C@@]2(C)[C@H]1CC[C@]2(O)C(=O)CO` [HYDROCORTISONE], for which the “Hs18S ΔCT” value in the series with HCT-8 host cells (Hs18S) (human, 41 h, 10 μM) is -0.47. Moreover, the cytotoxicity at 41 h, 10 µM in “in vitro” was -38.1%. Besides, in the series with Cryptosporidium parvum, the inhibition at 10 µM turned out to be 21.1%.

Consider `CC(C)/C(O)=C1/C(=O)O[C@@H](c2ccoc2)[C@]2(C)C(O)[C@@H](O)[C@@]34OC5(C)OC67CC(C)(C(O)[C@]6(O)[C@@H](O)[C@]3(O5)C12)[C@H](CC(=O)O)[C@]74C` (stereo partly drawn) [HYDROLYSIS PRODUCT OF BUSSEIN], for which, in the series with HCT-8 host cells (Hs18S) (human, 41 h, 10 μM), the “Hs18S ΔCT” value was -0.69. The cytotoxicity at 41 h, 10 µM in the series “in vitro” is -60.9%. Moreover, the inhibition at 10 µM in the series with Cryptosporidium parvum came to 8.3%.

As to `COc1ccc2c(C)cc(=O)oc2c1` [HYMECROMONE METHYL ETHER], the “Hs18S ΔCT” value in the series on HCT-8 host cells (Hs18S) (human, 41 h, 10 μM) is 0.26. Also, in the series “in vitro”, the cytotoxicity at 41 h, 10 µM was found to be 16.6%. The inhibition at 10 µM in the series on Cryptosporidium parvum was -1.44%.

As for `CN1[C@@H]2CC[C@H]1C[C@@H](OC(=O)[C@H](CO)c1ccccc1)C2` [HYOSCYAMINE], in the series with HCT-8 host cells (Hs18S) (setting [1]), the “Hs18S ΔCT” value is listed as -0.12. Further, the cytotoxicity at 10 µM in “in vitro” is -8.9%. In addition, the inhibition at 10 µM with Cryptosporidium parvum is 36.2%.

As to `O=c1[nH]cnc2nc[nH]c12` [HYPOXANTHINE], the “Hs18S ΔCT” value with HCT-8 host cells (Hs18S) (human, 41 h, 10 μM) was 0.22. Also, the cytotoxicity at 41 h, 10 µM in the series “in vitro” was determined as 14.3%. For the same compound, in the series on Cryptosporidium parvum, the inhibition at 10 µM was 23.2%.

For `COc1ccc(-c2oc3c(CC=C(C)C)c(O[C@@H]4O[C@H](CO)[C@@H](O)[C@H](O)[C@H]4O)cc(O)c3c(=O)c2O[C@@H]2O[C@@H](C)[C@H](O)[C@@H](O)[C@H]2O)cc1` [ICARIIN], in the series on HCT-8 host cells (Hs18S) (human, 41 h, 10 μM), the “Hs18S ΔCT” value is -0.22. Also, in the series “in vitro”, the cytotoxicity at 41 h, 10 µM was -16.4%. Also, in the series with Cryptosporidium parvum, the inhibition at 10 µM is -12.3%.

With `OCc1c[nH]c2ccccc12` [INDOLE-3-CARBINOL], the “Hs18S ΔCT” value in the series on HCT-8 host cells (Hs18S) (setting [1]) was -0.40. Besides, the cytotoxicity at 41 h, 10 µM in “in vitro” was -31.7%. The inhibition at 10 µM in the series on Cryptosporidium parvum was found to be 0.77%.

Take `O[C@H]1[C@H](O)[C@@H](O)[C@H](O)[C@@H](O)[C@H]1O` [INOSITOL]: the “Hs18S ΔCT” value in the series on HCT-8 host cells (Hs18S) (setting [1]) is 0.08. Also, the cytotoxicity at 41 h, 10 µM in the series “in vitro” was determined as 5.5%. Besides, the inhibition at 10 µM in the series on Cryptosporidium parvum worked out at 11.9%.

On to `COc1c(O)cc(O)cc1O` [IRETOL], for which, in the series on HCT-8 host cells (Hs18S) (human, 41 h, 10 μM), the “Hs18S ΔCT” value is -0.32. Also, the cytotoxicity at 41 h, 10 µM in “in vitro” was -24.7%. In the series on Cryptosporidium parvum, the inhibition at 10 µM was -15%.

`COc1cc(-c2coc3cc(O[C@@H]4O[C@H](CO)[C@@H](O)[C@H](O)[C@H]4O)c(OC)c(O)c3c2=O)cc(O)c1OC` [IRIDIN]: the “Hs18S ΔCT” value in the series with HCT-8 host cells (Hs18S) (human, 41 h, 10 μM) is recorded as -0.14. In addition, the cytotoxicity at 41 h, 10 µM in the series “in vitro” is -10%. The inhibition at 10 µM with Cryptosporidium parvum is -13.3%.

Turning to `COc1cc(-c2coc3cc(OC)c(OC)c(OC)c3c2=O)cc(OC)c1OC` [IRIGENIN TRIMETHYL ETHER], in the series on HCT-8 host cells (Hs18S) (setting [1]), the “Hs18S ΔCT” value was -0.48. The cytotoxicity at 10 µM in the series “in vitro” was -39.9%. Besides, the inhibition at 10 µM with Cryptosporidium parvum is 13.7%.

As to `COc1cc(-c2coc3cc(OCc4ccccc4)c(OC)c(O)c3c2=O)cc(OCc2ccccc2)c1OC` [IRIGENIN, DIBENZYL ETHER], the “Hs18S ΔCT” value in the series with HCT-8 host cells (Hs18S) (human, 41 h, 10 μM) is given as 0.00. In the series “in vitro”, the cytotoxicity at 41 h, 10 µM was 0%. The inhibition at 10 µM in the series on Cryptosporidium parvum was -15.7%.

`COc1cc(-c2coc3cc(O)c(OC)c(O)c3c2=O)cc(O)c1OC` [IRIGENIN]: in the series on HCT-8 host cells (Hs18S) (human, 41 h, 10 μM), the “Hs18S ΔCT” value is listed as -0.43. Also, the cytotoxicity at 41 h, 10 µM in “in vitro” was -34.9%. For the same compound, in the series on Cryptosporidium parvum, the inhibition at 10 µM was -15%.

As to `O=c1c(-c2cc(O)c(O)c(O)c2)coc2cc(O)c(O)c(O)c12` [IRIGENOL], in the series with HCT-8 host cells (Hs18S) (human, 41 h, 10 μM), the “Hs18S ΔCT” value stood at 0.01. In addition, the cytotoxicity at 41 h, 10 µM in “in vitro” is 0.7%. The inhibition at 10 µM in the series with Cryptosporidium parvum is -13.4%.

As to `COc1cc2occc2c2oc(=O)ccc12` [ISOBERGAPTENE], in the series on HCT-8 host cells (Hs18S) (setting [1]), the “Hs18S ΔCT” value is reported as 0.17. Besides, the cytotoxicity at 10 µM in “in vitro” was determined as 11%. Further, the inhibition at 10 µM in the series with Cryptosporidium parvum worked out at 2%.

As to `C=C1CCC2C(CC2(C)C)C(=O)CCC1O` (stereo not drawn) [ISOKOBUSONE], the “Hs18S ΔCT” value with HCT-8 host cells (Hs18S) (human, 41 h, 10 μM) is given as -0.25. The cytotoxicity at 41 h, 10 µM in the series “in vitro” is -18.7%. In addition, in the series with Cryptosporidium parvum, the inhibition at 10 µM is -33.5%.

For `O=C(/C=C/c1ccc(O)cc1)c1ccc(O)cc1O` [ISOLIQUIRITIGENIN], in the series on HCT-8 host cells (Hs18S) (human, 41 h, 10 μM), the “Hs18S ΔCT” value was -0.34. Besides, the cytotoxicity at 41 h, 10 µM in the series “in vitro” is -26.4%. In addition, in the series on Cryptosporidium parvum, the inhibition at 10 µM was found to be 52.9%.

For the compound `COc1cc(O)ccc1C(C)=O` [ISOPEONOL], the “Hs18S ΔCT” value in the series on HCT-8 host cells (Hs18S) (human, 41 h, 10 μM) came out at 0.03. Moreover, in “in vitro”, the cytotoxicity at 41 h, 10 µM amounted to 2.3%. Further, the inhibition at 10 µM in the series on Cryptosporidium parvum was -12.8%.
